According to BindingDB's records for patent US11547697 (Millennium Pharmaceuticals, 2023):

Key:
[1] = molecular target: Phosphatidylinositol 4,5-bisphosphate 3-kinase catalytic subunit beta isoform (Homo sapiens, UniProt P42338); assay: Inhibition Assay of PI3K
[2] = molecular target: T1, Phosphatidylinositol 4,5-bisphosphate 3-kinase catalytic subunit delta isoform (Homo sapiens, UniProt O00329); assay: Inhibition Assay of PI3K
T1 sequence (O00329 whole entry): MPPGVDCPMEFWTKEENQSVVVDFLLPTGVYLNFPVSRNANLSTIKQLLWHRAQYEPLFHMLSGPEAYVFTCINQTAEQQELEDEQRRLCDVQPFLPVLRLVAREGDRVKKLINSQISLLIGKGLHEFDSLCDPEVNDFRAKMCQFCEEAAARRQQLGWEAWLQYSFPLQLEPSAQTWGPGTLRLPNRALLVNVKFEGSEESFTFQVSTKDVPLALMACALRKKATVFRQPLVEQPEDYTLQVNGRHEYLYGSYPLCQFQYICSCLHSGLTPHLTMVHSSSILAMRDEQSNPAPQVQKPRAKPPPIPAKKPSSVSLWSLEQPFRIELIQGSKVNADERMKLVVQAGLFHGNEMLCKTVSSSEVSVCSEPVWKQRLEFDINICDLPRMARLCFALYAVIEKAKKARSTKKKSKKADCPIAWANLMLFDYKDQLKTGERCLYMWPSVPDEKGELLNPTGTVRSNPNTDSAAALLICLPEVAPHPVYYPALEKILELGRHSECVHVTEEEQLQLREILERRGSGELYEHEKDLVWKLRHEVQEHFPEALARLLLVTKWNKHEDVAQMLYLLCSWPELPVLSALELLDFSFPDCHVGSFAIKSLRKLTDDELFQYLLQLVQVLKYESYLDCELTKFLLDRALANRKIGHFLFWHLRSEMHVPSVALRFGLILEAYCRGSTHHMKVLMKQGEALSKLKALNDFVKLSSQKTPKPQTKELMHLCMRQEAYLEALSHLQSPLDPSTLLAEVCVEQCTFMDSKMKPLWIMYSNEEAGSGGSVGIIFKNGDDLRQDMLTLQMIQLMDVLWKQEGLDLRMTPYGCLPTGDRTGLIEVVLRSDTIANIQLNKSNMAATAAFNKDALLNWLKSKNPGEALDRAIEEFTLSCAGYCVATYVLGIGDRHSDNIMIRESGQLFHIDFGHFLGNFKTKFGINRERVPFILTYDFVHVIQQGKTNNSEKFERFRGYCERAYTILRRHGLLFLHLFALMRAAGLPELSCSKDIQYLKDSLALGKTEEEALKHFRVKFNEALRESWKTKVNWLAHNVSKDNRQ

Sequence of Phosphatidylinositol 4,5-bisphosphate 3-kinase catalytic subunit beta isoform (P42338 whole entry, canonical isoform): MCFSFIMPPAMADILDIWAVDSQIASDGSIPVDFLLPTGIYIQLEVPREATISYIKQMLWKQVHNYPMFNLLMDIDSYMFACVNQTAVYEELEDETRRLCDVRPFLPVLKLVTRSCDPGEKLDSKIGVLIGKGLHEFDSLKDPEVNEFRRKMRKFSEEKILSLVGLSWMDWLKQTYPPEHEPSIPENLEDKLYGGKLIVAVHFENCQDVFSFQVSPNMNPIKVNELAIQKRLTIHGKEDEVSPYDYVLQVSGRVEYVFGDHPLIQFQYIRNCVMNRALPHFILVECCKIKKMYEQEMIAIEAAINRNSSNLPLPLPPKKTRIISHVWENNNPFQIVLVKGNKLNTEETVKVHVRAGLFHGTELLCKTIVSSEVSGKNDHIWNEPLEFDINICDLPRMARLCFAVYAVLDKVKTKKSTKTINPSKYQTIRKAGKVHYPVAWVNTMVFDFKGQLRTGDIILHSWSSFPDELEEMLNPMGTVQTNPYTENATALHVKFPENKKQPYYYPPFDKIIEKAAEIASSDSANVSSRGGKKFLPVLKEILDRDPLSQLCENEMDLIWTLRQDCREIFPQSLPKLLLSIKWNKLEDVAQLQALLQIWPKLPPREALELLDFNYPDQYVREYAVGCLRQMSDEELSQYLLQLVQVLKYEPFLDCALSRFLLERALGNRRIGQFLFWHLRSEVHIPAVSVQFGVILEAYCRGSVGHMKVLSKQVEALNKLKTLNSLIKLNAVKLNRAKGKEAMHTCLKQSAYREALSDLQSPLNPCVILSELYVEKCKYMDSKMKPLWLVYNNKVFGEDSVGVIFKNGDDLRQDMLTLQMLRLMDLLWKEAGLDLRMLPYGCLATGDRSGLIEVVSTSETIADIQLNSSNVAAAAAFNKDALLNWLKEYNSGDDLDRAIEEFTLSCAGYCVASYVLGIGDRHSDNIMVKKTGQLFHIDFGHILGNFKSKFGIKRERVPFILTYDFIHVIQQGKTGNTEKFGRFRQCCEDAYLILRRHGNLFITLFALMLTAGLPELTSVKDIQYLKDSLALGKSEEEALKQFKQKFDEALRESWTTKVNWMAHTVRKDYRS

Compound	IC50 [1] [µM]	IC50 [2] [µM]
Nc1ccc2cc(-c3ccc4nccc(-c5ccncc5)c4c3)ccc2n1 [US11547697, Compound 5]	> 10	–
Nc1nc2cc(-c3ccc4nccc(NC5CCOCC5)c4c3)ccc2o1 [US11547697, Compound 32]	–	> 10
Nc1nc2cc(-c3ccc4nccn4c3)ccc2o1 [US11547697, Compound 40]	–	> 10
Cc1nc2ccc(-c3ccc4oc(N)nc4c3)nn2c1-c1ccncc1 [US11547697, Compound 56]	–	> 10
Nc1nc2cc(-c3ccc4ncc(N5CCOCC5)n4n3)ccc2o1 [US11547697, Compound 57]	–	> 10
Nc1nc2cc(-c3ccc4ncc(N5CCOCC5)nc4c3)ccc2o1 [US11547697, Compound 64]	–	> 10
CC(C)N1CCC(n2cnc3ccc(-c4ccc5oc(N)nc5c4)cc3c2=O)CC1 [US11547697, Compound 74]	–	> 10
Nc1nc2cc(-c3ccc4ncn(C5CCNCC5)c(=O)c4c3)ccc2o1 [US11547697, Compound 75]	–	> 10
Nc1nc2cc(-c3ccc4ncc(-c5cnn(CCO)c5)nc4c3)ccc2o1 [US11547697, Compound 108]	–	> 10
Nc1nc2cc(-c3ccc4ncc(N5CCOCC5)nc4c3)ccc2s1 [US11547697, Compound 116]	–	> 10
Nc1nc2ccc(-c3ccc4ncc(N5CCOCC5)nc4c3)cc2o1 [US11547697, Compound 117]	–	> 10
CN1CCN(c2cnc3ccc(-c4ccc5nc(N)oc5c4)cc3n2)CC1 [US11547697, Compound 118]	–	> 10
Nc1nc2cc(-c3ccc4ncc(N5CCNC(=O)C5)nc4c3)ccc2o1 [US11547697, Compound 135]	–	> 10
Nc1nc2cc(-c3ccc4ncc(-c5ccccn5)nc4c3)ccc2o1 [US11547697, Compound 195]	–	> 10
Nc1nc2cc(-c3ccc4nnc(-c5ccncc5)n4c3)ccc2o1 [US11547697, Compound 229]	–	> 10
CC(=O)Nc1nc2ccc(-c3ccc4nc(N)oc4c3)cc2s1 [US11547697, Compound 242]	–	> 10
Nc1nc2cc(-c3ccc4ncc(N5CCN(C6CC6)CC5)nc4c3)ccc2o1 [US11547697, Compound 261]	–	> 10

Compound	IC50 [1] [µM]	IC50 [2] [µM]
COCCn1cnc2ccc(-c3ccc4oc(N)nc4c3)cc2c1=O [US11547697, Compound 272]	–	> 10
C[C@H]1CN(c2cnc3ccc(-c4ccc5nc(N)sc5c4)cc3n2)CCN1 [US11547697, Compound 308]	–	> 10
C[C@H]1CN(c2cnc3ccc(-c4ccc5nc(N)oc5c4)cc3n2)CCN1 [US11547697, Compound 309]	–	> 10
Nc1nc2cc(-c3ccc4ncc(C(=O)N(CCO)CCO)n4c3)ccc2o1 [US11547697, Compound 316]	–	> 10
Nc1nc2cc(-c3ccn4ncc(C(=O)N5CCCC5)c4c3)ccc2o1 [US11547697, Compound 346]	–	> 10
Cc1cc(-c2ccc3ncc(C(=O)N4CCOCC4)n3c2)cc2nc(N)oc12 [US11547697, Compound 364]	–	> 10
CN(C)C1CN(c2cnc3ccc(-c4ccc5oc(N)nc5c4)cc3n2)C1 [US11547697, Compound 366]	–	> 10
Nc1nc2cc(-c3ccc4ncc(C(=O)N5CCOCC5)n4c3)cnc2o1 [US11547697, Compound 400]	–	> 10
Nc1nc2cc(-c3ccc4c(N)n[nH]c4c3)ccc2o1 [US11547697, Compound 428]	–	> 10
CC(=O)Nc1n[nH]c2cc(-c3ccc4oc(N)nc4c3)ccc12 [US11547697, Compound 430]	–	> 10
Nc1nc2cc(-c3cc(F)c4oc(N)nc4c3)ccc2o1 [US11547697, Compound 432]	–	> 10
Nc1nc2cc(-c3ccc4ncc(C(=O)N5CC(F)C5)n4c3)ccc2o1 [US11547697, Compound 468]	–	> 10
Nc1nc2cc(-c3ccc4ncc(C(=O)N5CCn6cncc6C5)n4c3)ccc2o1 [US11547697, Compound 493]	–	> 10
Nc1nc2cc(-c3ccc4ncc(C(=O)N5CC6(C5)OCCO6)n4c3)ccc2o1 [US11547697, Compound 494]	–	> 10
C[C@@H]1COCCN1C(=O)c1cnc2ccc(-c3ccc4oc(N)nc4c3)cn12 [US11547697, Compound 495]	–	> 10
Nc1nc2cc(-c3ccc4ncc(C(=O)N5CC6CCC(C5)O6)n4c3)ccc2o1 [US11547697, Compound 504]	–	> 10

Continued, values first:

IC50 [1] [µM]	IC50 [2] [µM]	Compound
–	> 10	Nc1nc2cc(-c3ccc4ncc(=O)[nH]c4c3)ccc2o1 [US11547697, Compound 72]
–	> 10	Nc1nc2cc(-c3ccc4ncc(C(=O)N5CCOCC5)n4n3)ccc2o1 [US11547697, Compound 105]
–	> 10	CN1CCN(c2cnc3ccc(-c4ccc5nc(N)sc5c4)cc3n2)CC1 [US11547697, Compound 115]
–	> 10	Nc1nc2ccc(-c3ccc4ncc(C(=O)N5CCOCC5)n4c3)cc2o1 [US11547697, Compound 124]
–	> 10	Nc1nc2cc(-c3ccc4ncc(C(=O)N5CCOCC5)n4c3)ccc2s1 [US11547697, Compound 126]
–	> 10	CN1CCN(c2cnc3ccc(-c4ccc5sc(N)nc5c4)cc3n2)CC1 [US11547697, Compound 127]
–	> 10	CN1CCCN(c2cnc3ccc(-c4ccc5oc(N)nc5c4)cc3n2)CC1 [US11547697, Compound 136]
–	> 10	CN1CCN(C(=O)c2cnc3ccc(-c4ccc5nc(N)oc5c4)cn23)CC1 [US11547697, Compound 145]
–	> 10	CN(CCN1CCOCC1)c1cnc2ccc(-c3ccc4oc(N)nc4c3)cc2n1 [US11547697, Compound 166]
–	> 10	Nc1nc2cc(-c3ccc4ncn(CCO)c(=O)c4c3)ccc2o1 [US11547697, Compound 184]
–	> 10	Nc1nc2cc(-c3ccc4ncc(C(=O)N5CCCCC5)n4c3)ccc2o1 [US11547697, Compound 196]
–	> 10	CC1CN(C(=O)c2cnc3ccc(-c4ccc5oc(N)nc5c4)cn23)CCO1 (stereo unspecified) [US11547697, Compound 201]
–	> 10	Nc1nc2ccc(-c3ccc4nc(N)sc4c3)cc2o1 [US11547697, Compound 243]
–	> 10	Nc1cn2cc(-c3ccc4oc(N)nc4c3)ccc2n1 [US11547697, Compound 245]
–	> 10	Nc1nc2cc(-c3ccc4ncn(CCN5CCOCC5)c(=O)c4c3)ccc2o1 [US11547697, Compound 289]
–	> 10	Nc1nc2cc(-c3ccc4ncc(N5CC(n6cccn6)C5)nc4c3)ccc2o1 [US11547697, Compound 318]
–	> 10	Nc1nc2cc(-c3ccn4ncc(C(=O)N5CCOCC5)c4c3)ccc2o1 [US11547697, Compound 347]
–	> 10	COCCN1CCN(c2cnc3ccc(-c4ccc5oc(N)nc5c4)cc3n2)CC1 [US11547697, Compound 387]
–	> 10	CC(=O)Nc1nc2cc(-c3cc(F)c4oc(N)nc4c3)ccc2s1 [US11547697, Compound 435]
–	> 10	Nc1nc2cc(-c3ccc4sc(N)nc4c3)cc(F)c2o1 [US11547697, Compound 437]
–	> 10	Cc1cc(-c2ccc3nc(N)oc3c2)cn2c(C(=O)N3CCOCC3)cnc12 [US11547697, Compound 449]
–	> 10	C[C@H]1COCCN1C(=O)c1cnc2ccc(-c3ccc4oc(N)nc4c3)cn12 [US11547697, Compound 483]
–	> 10	Nc1nc2c(-c3ccc4ncc(C(=O)N5CCOCC5)n4c3)cccc2o1 [US11547697, Compound 496]
